Data taken from patent US12404283B2, “c-MYC mRNA translation modulators and uses thereof in the treatment of cancer” (Anima Biotech Inc., priority 2022, dated 2025).
Numbered stars: 1 amine (or outer) side, 2 acyl side, 3 side chain; on linkers, the order of the positions; unused ones are H or OH. Bridge positions count the residues as written; N and C are the ends. Square brackets hold non-standard residues; d marks the D form. Peptide text beside a SMILES is read from it. I, II: the chains in the order shown. Actinocin(9to1) = Cc1c2oc3c(C)ccc(C(=O)[*:1])c3nc-2c(C(=O)[*:2])c(N)c1=O; NMeV = CN[C@H](C(=O)O)C(C)C; Sar = CNCC(=O)O

Experiments:
c-Myc mRNA [1] = test: c-Myc mRNA level and transcription sites in A549 cells; format: cell-based, human
Excerpt: (§1) A549 cells were exposed to vehicle, general transcription inhibitor actinomycin D or anti-c-Myc compound.
(§2) In gray, cell nuclei stained with DAPI; in red, c-Myc protein; in purple, c-Myc mRNA; in yellow, c-Myc transcription sites.

c-Myc mRNA [2] = test: Fluorescent in situ hybridization (FISH) assay for c-Myc mRNA; format: cell-based, human; settings: A549 cells, 4 hours, FIG. 3 lower panel
Experimental: A549 cells were incubated with compounds for 24 hours (FIG. 3, upper panel) and c-Myc protein detected by immunofluorescence. In parallel, A549 cells were incubated with compounds for 4 hours and c-Myc mRNA was visualized by micrscopy using c-Myc mRNA specific fluorescent-tagged probes (FIG. 3, lower panel).
A549 cells were grown in 384-wells plates (Perkin Elmer, Cat. 6057300) for 48 hours, treated with compounds for 4 hours and then fixed for 20 min in 4% paraformaldehyde. Next day, permeabilization was done for 90 min at 4° C., using 70% ethanol. Then, the cells were incubated for 10 min with 10% formamide in 10% saline-sodium citrate. Fluorescently labeled custome DNA probes that target c-Myc (Cy3, BioSearch Technologies, Cat. SMF-1063-5) and GAPDH (Cy5, BioSearch Technologies, Cat. SMF-2019-1) mRNAs were hybridized overnight at 37° C. in a dark chamber in 10% formamide. The next day, cells were washed twice with 10% formamide for 30 min. […]
Following RNA FISH experiments, images of cells were taken with Operetta (Perkin Elmer, USA), a wide-field fluorescence microscope at ×63 magnification. […] In Columbus, cells were identified by their nucleus, using the “Find Nuceli” module, cytoplasm was detected based on the FISH-channel, and single mRNAs in the cytoplasm and transcription sites in the nucleus were detected using “Find Spots” module. […]

c-Myc protein = c-Myc protein level in A549 cells; format: cell-based, human
Excerpt: as §1, §2

c-Myc = c-Myc immunofluorescence assay; format: cell-based, human; settings: A549 cells; for Myc Efficacy (−LogEC50): 24 hours treatment, anti-c-Myc immunofluorescence
Summary of the method: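 A549 cells grown 48 h, exposed 24 h to rising compound concentrations, then fixed, permeabilised and stained for c-Myc plus DAPI. Nuclear-segmented c-Myc fluorescence quantified by high-content imaging at 20×; EC50 from logistic dose–response fits.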

A549 xenografts [3] = test: A549 xenograft tumor growth in nude mice; format: in vivo; settings: NMRI female nude mice, 3 mg/kg twice a week for 49 days, p<0.05
Experimental: Relative tumor volumes of A549 xenografts in NMRI female nude mice after treatment with compound 3 mg/kg twice a week for 49 days. Error bars represent median±SEM, n=10 mice at each time point and analyzed by one-tailed T-TEST in Prism for *p<0.05

A549 xenografts [4] = test: A549 xenograft model in nude mice; format: in vivo, NMRI nude female mice; settings: 3 mg/kg i.p. twice a week for 49 days, FIG. 5
Experimental: NMRI nude female mice of 6-8 weeks of age were acclimated after shipping for >4 days. A549 cells, 5×10^6 in 100 ul Matrigel:PBS (50:50), were subcutaneously injected into flanks of mice. When the tumor size reached 80 to 200 mm^3, mice were grouped with similar average tumor size in each group, 10 animals per group. Compounds were dissolved in 10% DMSO, 10% Solutol, 80% water. Compounds were given i.p. for 49 days at 3 mg/kg twice a week. Caliper measurement of tumor size was done twice a week.
Error bars represent median±SEM, n=10 mice at each time point and analyzed by one-tailed T-TEST in Prism for *p<0.05.

A549 cells = test: Metabolic labeling (L-Azidohomoalanine) of global protein synthesis in A549 cells; format: cell-based, human
Excerpt: FIG. 2 depicts selective regulation of c-Myc translation. […] In gray, cell nuclei stained with DAPI; in yellow, L-Azidohomoalanine (AHA) metabolic labeling.

global translation = test: Metabolic labeling assay (global translation, modified methionine incorporation); format: cell-based, human; settings: A549 cells, 4 hour pulse, FIG. 2
Experimental: A549 cells were incubated with active compounds and metabolically labelled with fluorescent methionine for a 4 hour pulse (click-chemistry modified methionine). Cells were fixed and newly synthesized proteins detected by using click-chemistry with a fluorescent detector (FIG. 2).
A549 cells were seeded at 3,200 cells per well in complete culture medium. Plates were incubated at 37° C., 5% CO2 overnight. After 48 hours of incubation, the growth medium was aspirated, and cells were washed three times with HBSS. Metabolic labeling medium DMEM (-Cys-Met), containing 10% dialyzed FBS, 10% pencillin-streptomycin and 1% L-glutamine was added to the cells for 30 min. Then medium was replaced by metabolic labeling medium containing 25 μM L-Azidohomoalanine (AHA, ThermoFisher) and tested compounds at a final concentration of 30 μM, and cells were incubated for 4 hours at 37° C., 5% CO2. Cells were washed by HBSS at 37° C. for 15 min before fixing with 4% paraformaldehyde. Cells were washed twice with 3% BSA in PBS before permeabilization with 0.5% Triton X-100 in PBS for 20 min. The AHA staining with Alexa Fluor™ 555 alkyne was performed according to the manufacturer protocol. Images were captured with Operetta microscope (Perkin Elmer) using ×20 high NA objective lens.

Compound | Myc Efficacy (−LogEC50) (c-Myc) | also measured
Cc1c2oc3c(C)ccc(C(=O)N[C@@H]4C(=O)N[C@H](C(C)C)C(=O)N5CCC[C@H]5C(=O)N(C)CC(=O)N(C)[C@@H](C(C)C)C(=O)O[C@@H]4C)c3nc-2c(C(=O)N[C@@H]2C(=O)N[C@H](C(C)C)C(=O)N3CCC[C@H]3C(=O)N(C)CC(=O)N(C)[C@@H](C(C)C)C(=O)O[C@@H]2C)c(N)c1=O [actinomycin D] (I: T[dV]P[Sar][NMeV] / II: T[dV]P[Sar][NMeV]; ester I:1-I:C, II:1-II:C; linker I:N-II:N via Actinocin(9to1)) | – | c-Myc mRNA level (c-Myc mRNA [1]): complete reduction; c-Myc transcription sites (c-Myc mRNA [1]): complete reduction; c-Myc mRNA in the cytoplasm (c-Myc mRNA [2]): mRNA accumulation in the cytoplasm; c-Myc transcription site (spots inside the nucleus) (c-Myc mRNA [2]): inhibited transcription site; c-Myc protein level (c-Myc protein): significant decrease; c-Myc protein detected by immunofluorescence (c-Myc; 24 hours, FIG. 3 upper panel): reduced c-Myc protein
NC1(c2ccc(-c3cn4c(n3)sc3cc(C(=O)NCCCN5CCCCC5)ccc34)cc2)CC1 [compound 332, 2-(4-(1-aminocyclopropyl)phenyl)-N-(3-(piperidin-1-yl)propyl)benzo[d]imidazo [2,1-b]thiazole-7-carboxamide] | +++ (+++ ≥6) | c-Myc-dependent tumor growth (relative tumor volumes) (A549 xenografts [3]): inhibited c-Myc-dependent tumor growth in-vivo; c-Myc-dependent tumor growth (relative tumor volume) (A549 xenografts [4]): inhibited c-Myc-dependent tumor growth in-vivo
CNC(=O)c1ccc2c(c1)sc1nc(-c3ccc([C@@H]4C[C@H](O)CN4)cc3F)cn12 [compound 521, 2-(2-fluoro-4-((2S,4S)-4-hydroxypyrrolidin-2-yl)phenyl)-N-methylbenzo[d]imidazo[2,1-b]thiazole-7-carboxamide] | +++ (+++ ≥6) | –
CN1CC[C@@H](NC(=O)c2ccc3c(c2)sc2nc(-c4ccc([C@@H]5CCCN5)cc4F)cn23)[C@@H](F)C1 [compound 526, N-((3S,4R)-3-fluoro-1-methylpiperidin-4-yl)-2-(2-fluoro-4-(pyrrolidin-2-yl)phenyl)benzo[d]imidazo[2,1-b]thiazole-7-carboxamide] | ++ (++ ≥5 and <6) | –
CN1CCC(NC(=O)c2ccc3c(c2)sc2nc(-c4ccc(C5CCNCC5)cc4F)cn23)CC1 [compound 527, 2-(2-fluoro-4-(piperidin-4-yl)phenyl)-N-(1-methylpiperidin-4-yl)benzo[d]imidazo[2,1-b]thiazole-7-carboxamide] | +++ (+++ ≥6) | –
CN1CCC(NC(=O)c2ccc3c(c2)sc2nc(-c4ccc(C5(O)CCNCC5)cc4F)cn23)CC1 [compound 528, 2-(2-fluoro-4-(4-hydroxypiperidin-4-yl)phenyl)-N-(1-methylpiperidin-4-yl)benzo[d]imidazo[2,1-b]thiazole-7-carboxamide] | +++ (+++ ≥6) | –
CN1CCC(NC(=O)c2ccc3c(c2)sc2nc(-c4ccc(C5(O)CCNC5)cc4F)cn23)CC1 (centres unmarked) [compound 530, 2-(2-fluoro-4-(3-hydroxypyrrolidin-3-yl)phenyl)-N-(1-methylpiperidin-4-yl)benzo[d]imidazo[2,1-b]thiazole-7-carboxamide] | +++ (+++ ≥6) | –
CN1C2CCC1CC(NC(=O)c1ccc3c(c1)sc1nc(-c4ccc([C@@H]5CCCN5)cc4F)cn13)C2 (some centres unmarked) [compound 531, 2-(2-fluoro-4-(pyrrolidin-2-yl)phenyl)-N-(8-methyl-8-azabicyclo[3.2.1]octan-3-yl)benzo[d]imidazo[2,1-b]thiazole-7-carboxamide] | ++ (++ ≥5 and <6) | –
NC(=O)c1ccc2c(c1)sc1nc(-c3ccc(C4CC(C(F)F)CN4)cc3F)cn12 (centres unmarked) [compound 540, 2-(4-(4-(difluoromethyl)pyrrolidin-2-yl)-2-fluorophenyl)benzo[d]imidazo [2,1-b]thiazole-7-carboxamide] | +++ (+++ ≥6) | –
CN1CCC(NC(=O)c2ccc3c(c2)sc2nc(-c4ccc(C5CC(C#N)CN5)cc4F)cn23)CC1 (centres unmarked) [compound 541, 2-(4-(4-cyanopyrrolidin-2-yl)-2-fluorophenyl)-N-(1-methylpiperidin-4-yl)benzo[d]imidazo[2,1-b]thiazole-7-carboxamide] | +++ (+++ ≥6) | –
O=C(NC1COCOC1)c1ccc2c(c1)sc1nc(-c3ccc(C4CCCN4)cc3F)cn12 (centres unmarked) [compound 545, N-(1,3-dioxan-5-yl)-2-(2-fluoro-4-(pyrrolidin-2-yl)phenyl)benzo[d]imidazo[2,1-b]thiazole-7-carboxamide] | +++ (+++ ≥6) | –
CN1CCC(NC(=O)c2ccc3c(c2)sc2nc(-c4ccc(C5CCNCC5O)cc4F)cn23)CC1 (centres unmarked) [compound 546, 2-(2-fluoro-4-(3-hydroxypiperidin-4-yl)phenyl)-N-(1-methylpiperidin-4-yl)benzo[d]imidazo[2,1-b]thiazole-7-carboxamide] | +++ (+++ ≥6) | –
O=C(NCCCN1CCC(F)CC1)c1ccc2c(c1)sc1nc(-c3cc4c(cc3F)CCN4)cn12 [compound 601, 2-(5-fluoroindolin-6-yl)-N-(3-(4-fluoropiperidin-1-yl)propyl)benzo[d]imidazo[2,1-b]thiazole-7-carboxamide] | +++ (+++ ≥6) | –
C[C@@H]1C[C@@H]([C@H](O)CC2CC(=O)NC(=O)C2)C(=O)[C@@H](C)C1 [cycloheximide] | – | global protein synthesis (AHA metabolic labeling) (A549 cells): total inhibition; incorporation of modified methionine (global translation) (global translation): completely reduced incorporation of modified methionine
N-(2- (dimethylamino)propyl)-2- (4- (methylcarbamoyl)phenyl) benzo[d]imidazo[2,1-b] thiazole-7-carboxamide [compound 239] | + (+ >3 and <5) | –
